Experimental data taken from patent US4913905A, “Transdermal therapeutic systems for active ingredient combinations” (priority 1987, dated 1990).

Columns and labels:
[1] = Therapeutically effective daily dose (oral / transdermal); assay type: in vivo; details: estimated values
[2] = cited from earlier work
[3] = In vitro flux through pig skin in a Franz diffusion cell (saturated ethanolic solution or system of Example 1); details: for skin permeation in vitro, alcoholic solution: saturated ethanolic solution
Experimental: The flux of progesterone and synthetic progestrone derivatives is measured in vitro as follows:
After 24 hours, an aliquot of the aqueous acceptor solution from the acceptor compartment is examined for content of the relevant progesterone derivative and, from this, the flux in μg cm^2 ×h is calculated.

[4] = system: endometrium carcinomas; details: following treatment; numerous studies in the USA; cited from earlier work
[5] = cited from earlier work; remark: listed apart in the source
[6] = vehicle of DE-A No. 3 205 258, e.g. ethanol gel; systems of acceptable size; cited from earlier work

Structure (SMILES)	therapeutically effective daily dose, transdermal [1]	therapeutically effective daily dose, oral [2]	skin permeation in vitro, alcoholic solution ([3]; pig skin, 24 hours)	other results
C#C[C@]1(O)CC[C@H]2[C@@H]3CCC4=CC(=O)CC[C@@H]4[C@H]3CC[C@@]21CC [d-norgestrel]	0.05 mg	0.07 to 0.15 mg	0.028 μg/cm^2 · h	
CC(=O)O[C@]1(C(C)=O)CC[C@H]2[C@@H]3C[C@H](C)C4=CC(=O)CC[C@]4(C)[C@H]3CC[C@@]21C [medroxyprogesterone acetate]	2 mg	2.5 to 10 mg		
C#C[C@]1(OC(C)=O)CC[C@H]2[C@@H]3CCC4=CC(=O)CC[C@@H]4[C@H]3CC[C@@]21C [norethisterone acetate, norethisterone-17-acetate]	2 mg	0.5 to 5 mg		
C#C[C@]1(O)CC[C@H]2[C@@H]3CCC4=CC(=O)CC[C@@H]4[C@H]3CC[C@@]21C [norethisterone]	0.2 mg	0.5 to 5 mg	0.024 μg/cm^2 · h	necessary surface area of system ([3]; estimated values): 350 cm^2
CCCCC(=O)O[C@H]1CC[C@H]2[C@@H]3CCc4cc(O)ccc4[C@H]3CC[C@]12C [oestradiol valerate, estradiol-17-valerate]				times higher incidence of endometrium carcinomas [4]: 3.3 to 6 times
C[C@]12CC[C@@H]3c4ccc(O)cc4CC[C@H]3[C@@H]1CC[C@@H]2O [oestradiol, 17β-oestradiol]				times higher incidence of endometrium carcinomas [4]: 3.3 to 6 times; resorption following oral administration [5]: unsatisfactory; undesirable side-effects ([5]; oral, high dosage, frequent occurrence): nausea, thromboembolism; metabolisation by the liver ([5]; oral): rapid
CC(=O)[C@H]1CC[C@H]2[C@@H]3CCC4=CC(=O)CC[C@]4(C)[C@H]3CC[C@]12C [progesterone]	2 mg	100 to 300 mg	3.0 μg/cm^2 · h	skin permeation in vitro, system according Example 1 ([3]; transdermal therapeutic system according to Example 1, pig skin, 24 hours): 0.073 μg/cm^2 · h; amount that passes through the skin for an adequate therapeutic effect [6]: not sufficient
